# Measurements published in patent US11471462B2, “Compositions and methods for detecting and treating diabetes” (THE BROAD INSTITUTE, INC., priority 2016, dated 2022).
# How the values were obtained:
# Type in all cases: cell-based, human
# SLC16A11 [1] = assay: Compound treatment, SLC16A11 expression by ddPCR in SNU761 cells; conditions: SNU761 cells; for SLC16A11 transcript levels, compound treated compared to DMSO treated cells: same concentrations and treatment times as LINCS, ddPCR
# Method: (§1) A small number of the compounds that made the strongest positive connections to the SLC16A11 gene expression signature were selected and tested. […] Methotrexate was also included, which had been annotated as a dihydrofolate reductase inhibitor. SNU761 cells (derived from a human hepatocellular carcinoma) and NCIH716 cells (derived from a human cecum adenocarcinoma), which both express SLC16A11, were treated with the compounds. The same compound concentrations and treatment times were used as in the LINCS dataset experiments. […] For normalization, a different housekeeper gene, HPRT1, was used and obtained similar results with the mTOR inhibitors (FIGS. 14A and 14B).
# From the total list of compounds, 59 readily available compounds were selected from the 79 compounds with the largest connectivity scores to the query signature and 20 middle compounds with connectivity scores centered on 0 (FIG. 15A) and then treated SNU761 cells at the same doses and treatment times as were used in the LINCS dataset. It was expected that the top compounds would be enriched for compounds that increased SLC16A11 expression. […] The results were aligned with the expectations (FIG. 15B). Hierarchical clustering of the SLC16 expression profiles generated by the compound treatments are shown by the heat map in FIG. 15C.
# (§2) SNU761 (human hepatocellular carcinoma) and NCIH716 (human cecum adenocarcinoma) were cultured in RPMI Medium 1640 supplemented with 10% Fetal Bovine Serum (FBS), 100 μg/ml Streptomycin and 100 U/ml Penicillin. Cells were grown in a humidified CO2 incubator, at 37° C.
# (§3) For the unbiased approach taken to investigate the compounds that connected to the SLC16A11 gene expression signature, compounds were obtained from compound management at the Broad Institute.
# (§4) SNU761 and NCIH716 cells were plated into 96 well plates at a density of 20,000 cells per well. Hepatocytes were plated into collagen coated 96 well plates (Corning, 354408) at a density of 50,000 cells per well. After 24 hours, cells were treated with compounds at a final concentration of 10 μM or vehicle control for the appropriate amount of time.
# At the time of collection, cells in 96 well plates were lysed by directly adding 50 μL of RLT buffer (Qiagen). 75 μL of AMPure XP beads, diluted by a factor of 5 in polyethylene glycol, were then added to bind nucleic acids. One wash with polyethylene glycol was then performed. DNase treatment (Qiagen) was carried out according to the manufacturer's protocol in a final volume of 50 μL. 100 μL of polyethylene glycol was added after the DNase treatment to crowd nucleic acids back onto the beads. Two washes with 80% ethanol were performed and residual ethanol was removed. RNA was then eluted in water.
# (§5) RNA was DNase treated and converted into cDNA using the High-Capacity RNA-to-cDNA kit (Thermo Fisher Scientific). The following FAM-labeled TaqMan Real-Time PCR assays (Thermo Fisher Scientific) were used to quantify gene expression: SLC16A11 (Hs00601062_g1), SLC16A13 (Hs00416832_m1), SLC16A1 (Hs01560299_m1). The VIC-labeled TaqMan Real-Time assays TBP (Hs00427620_m1) or HPRT1 (Hs02800695_m1) were used for normalization. Droplets were generated and analyzed using a QX200 Droplet Generator and Reader system (BioRad). Data was extracted using QuantaSoft (BioRad) and analyzed using Microsoft Excel.
# SLC16A11 [2] = assay: Compound treatment, SLC16A11 expression by ddPCR in NCIH716 cells; conditions: same concentrations and treatment times as LINCS
# Method: as §1, §2, §3, §4
# At the time of collection, cells in 96 well plates were lysed by directly adding 50 μL of RLT buffer (Qiagen). […]
# as §5, with “The VIC-labeled TaqMan Real-Time assays TBP (Hs00427620_m1) or HPRT1 (Hs02800695_m1) were used for normalization.” left out
# SLC16A1 [3] = assay: Compound treatment, SLC16A1 expression by ddPCR in SNU761 cells; conditions: 10 μM for 24 hours
# Method: (§6) FIGS. 14A-14D provide graphs showing that mTOR inhibitors increase SLC16A11, but not SLC16A1 transcript levels. […] SLC16A11 (FIGS. 14A and 14B) and SLC16A1 (FIGS. 14C and 14D) expression was then assessed using droplet digital PCR (ddPCR). Bar plots depict relative fold-changes with respect to DMSO and error bars and standard deviations. Expression is normalized to housekeeping genes TBP or HPRT1.
# (§7) A small number of the compounds that made the strongest positive connections to the SLC16A11 gene expression signature were selected and tested. […] Methotrexate was also included, which had been annotated as a dihydrofolate reductase inhibitor. SNU761 cells (derived from a human hepatocellular carcinoma) and NCIH716 cells (derived from a human cecum adenocarcinoma), which both express SLC16A11, were treated with the compounds. […]
# as §5, with “The VIC-labeled TaqMan Real-Time assays TBP (Hs00427620_m1) or HPRT1 (Hs02800695_m1) were used for normalization.” left out
# SLC16A1 [4] = assay: Compound treatment, SLC16A1 expression by ddPCR in NCIH716 cells; conditions: 10 μM for 24 hours
# Method: as §6, §7
# as §5, with “The VIC-labeled TaqMan Real-Time assays TBP (Hs00427620_m1) or HPRT1 (Hs02800695_m1) were used for normalization.” left out
# SLC16A11 (A11) = assay: ddPCR based screening assay for modulators of SLC16A11 expression (Z′); conditions: SNU 761 cells; compound as positive control
# Source text: As detailed herein above, SLC16A11 (A11) belongs to a family of monocarboxylate transporters. Expression of A11 was studied in SNU 761 cell lines. These liver cancer cells are ideal for studying SLC16A11 expression because A11 is expressed in higher quantity in liver cells, although expression of the gene in all tissues is extremely low. The 5 SNP risk haplotype causes lowered expression and interferes with protein-protein interactions between A11 and a cofactor protein, indicating loss of function. Therefore, increasing A11 expression in individuals with the risk haplotype is likely beneficial.
# The quality of an assay can be quantified by Z′, a measure of how well the assay can differentiate between the positive and negative controls. Using the formula: […]
# First the cells were treated with inhibitor compounds, their RNA was extracted, and that RNA was used as a template to create DNA. Then, the DNA was quantified using droplet digital PCR (ddPCR), analyzed and quantified using QuantaSoft™ (BioRad). […]
# From the QuantaSoft scoring of each droplet, the means and standard deviations of SLC16A11 expression levels was determined in response to compound treatment. […] Points in light gray had the gene of interest and were scored as positive (FIG. 17C). SLC16A11 was scored in the graph. […]
# [5] = tested on: SLC16-dependent pyruvate transport; assay: Pyronic FRET pyruvate transport assay in 293T cells; conditions: 293T cells pre-incubated with inhibitor; 0.4 mM pyruvate, pH 7.4
# Source text: To obtain “proof of concept” for monocarboxylate transport by SLC16A11, pyruvate was focused on as the metabolite transported by all four SLC16 category I proteins, whose real-time transport in mammalian cells can be readily studied by the pyruvate FRET sensor, pyronic. 293T cells were co-transfected with pyronic and either empty vector control or SLC16A11-V5, which increases SLC16A11 levels without affecting other category I family members (FIG. 3M). Cells were perfused in physiological pH 7.4 Ringer's solution and 0.4 mM pyruvate was added at the indicated time point (FIG. 3D), resulting in an increase of the fluorescence signal, indicative of pyruvate uptake. […] Thus, this is consistent with the increase in fluorescence resulting from SLC16-dependent pyruvate transport.
# Cells were transferred onto glass cover slips in 60 mm tissue culture dishes 72 hr prior to the experiment. […] Cytoplasmic pH changes, indicative of H^+ transport, were determined in cells loaded with 1 μM BCECF-AM (Rink, T. J. et al., 1982, J Cell Biol, 95:189-196), a pH sensitive dye. […] Rates of proton influx and efflux were calculated as the slopes immediately following addition and withdrawal of pyruvate, after correcting for baseline drift. Baseline drift due to fluorescence bleaching is calculated during the initial 50 seconds of each trace prior to addition of pyruvate. […]
Compound,"SLC16A11 transcript levels, compound treated compared to DMSO treated cells (SLC16A11 [1])","SLC16A11 transcript levels, compound treated compared to DMSO treated cells (SLC16A11 [2])","avg_fc (SLC16A11 expression, compound treated vs DMSO treated cells) (SLC16A11 [1]; same doses and treatment times as in the LINCS dataset)","increase in SLC16A11 expression, compound treated compared to DMSO treated cells (SLC16A11 [1]; unbiased test of 59 top and 20 middle LINCS compounds, LINCS doses and times)",SLC16A1 expression with respect to DMSO (SLC16A1 [3]),SLC16A1 expression with respect to DMSO (SLC16A1 [4]),A11 expression in manual ddPCR assay (SLC16A11 (A11)),pyronic fluorescence signal (pyruvate uptake) [5]
"CN(Cc1cnc2nc(N)nc(N)c2n1)c1ccc(C(=O)N[C@@H](CCC(=O)O)C(=O)O)cc1 [methotrexate, reference compound]",did not alter,did not alter,–,–,–,–,–,–
"COc1ccc(-c2ccc3c(N4CCOCC4)nc(N4C[C@@H](C)O[C@@H](C)C4)nc3n2)cc1CO [KU-0063794, [5-[2-(2,6-dimethylmorpholin-4-yl)-4-morpholin-4-ylpyrido[2,3-d]pyrimidin-7-yl]-2-methoxyphenyl]methanol]",about 3 fold,about 3 fold,4.009,~4 fold,slight decrease,slight decrease,increased,–
Cc1n[nH]c(C)c1Cc1sc2c(c1C(=O)N1C[C@H](O)CO1)c(=O)n(C)c(=O)n2CC(C)C [AR-C155858],–,–,–,–,–,–,–,completely diminished
